Format in all cases: biochemical
One assay concerns the target Human mTOR (Homo sapiens, UniProt P42345). Briefly: mTOR kinase assay (DELFIA format, purified enzyme). The following applies: read-out: TOR Kinase IC50. The arrangement: FLAG.
A further assay deals with PI3K-alpha (Homo sapiens, UniProt P42336). Briefly: PI3K-alpha fluorescence polarization assay. The settings on record: read-out: PI3 Kinase α IC50. Here is the method:
(§1) The reaction buffer was 20 mM HEPES, pH 7.5, 2 mM MgCl2, 0.05% CHAPS; and 0.01% βME (added fresh). The Stop/Detection Buffer was 100 mM HEPES, pH 7.5, 4 mM EDTA, 0.05% CHAPS; ATP 20 mM in water; PIP2 (diC8, Echelon, Salt Lake City Utah cat #P-4508) 1 mM in water (MW=856.5). The GST-GRP was 1.75 mg/mL or 1.4 mg/mL in 10% glycerol. The Red detector (TAMRA) was 2.5 μM. Nunc 384-well black polypropylene fluorescent plates were used for PI3K assays.
(§2) The assay is run by placing 5 μL of diluted enzyme per well, then 5 μL of diluted compound (or 9.5 μL enzyme then 0.5 μL compound in DMSO) is added and mixed. Then, 10 μL substrate is added to start the reaction. The samples are incubated 30-60 minutes, then the reaction is stopped by adding 20 μL stop/detector mix. PI3K is diluted with reaction buffer (e.g., 5 μL or 7.5 μL PI3K into 620 μL reaction buffer), and 5 μL of diluted enzyme is used per well. A 5 μL portion of reaction buffer or of drug diluted in buffer (e.g., 4 μL/100 so final DMSO is 1% in reaction) is added to each. Pipetting up and down mixes the samples. Alternatively, the enzyme can be diluted to 1215 μL. In this case 9.8 μL is added per well and 0.2 μL compound is added in DMSO.
(§3) To prepare 1 mL of substrate solution, 955 μL reaction buffer, 40 μL PIP2, and 2.5 μL ATP are mixed. 10 μL of substrate is added to each well to start the reaction. […] The stop/detector mix is prepared by mixing 4 μL Red detector and 1.6 μL or 2.0 μL GST-GRP with 1 mL stop buffer, which results in 10 nM probe and 70 nM GST-GRP. 20 μL of the stop/detector mix is added to each well to stop the reaction. The plates are read after 30-90 minutes keeping the red probe solutions dark. For the zero time point, stop/detector mix is added to the enzyme just before adding substrate. For an extra control, stop/detector mix is added to buffer (no enzyme) and substrate or to just buffer (no substrate). […] The recommended reaction has 0.06 μL per 20 μL (0.015 μg/20 μL) or 0.01125 μg/15 μL or 0.75 μg/mL.
(§4) Plates are read on machines with filters for TAMRA. The units are mP with no enzyme controls reading app 190-220 mP units. Fully active enzyme reduces fluorescence polarization down to 70-100 mP after 30 minutes. An active compound raises the mP values halfway to control or to 120-150 mP units.
(In fluorescence polarisation assays a small probe gives low polarisation when free and higher when bound to something large.)

Another assay deals with PI3K-gamma (Homo sapiens, UniProt P48736). In words: PI3K-gamma fluorescence polarization assay. The settings on record: read-out: PI3 Kinase γ IC50. The protocol: as §1, §2, §3, §4

Broadly, the IC50 is the point on the concentration scale where inhibition reaches its midpoint.

PI3K-gamma, sequence (P48736 whole entry, species assumed): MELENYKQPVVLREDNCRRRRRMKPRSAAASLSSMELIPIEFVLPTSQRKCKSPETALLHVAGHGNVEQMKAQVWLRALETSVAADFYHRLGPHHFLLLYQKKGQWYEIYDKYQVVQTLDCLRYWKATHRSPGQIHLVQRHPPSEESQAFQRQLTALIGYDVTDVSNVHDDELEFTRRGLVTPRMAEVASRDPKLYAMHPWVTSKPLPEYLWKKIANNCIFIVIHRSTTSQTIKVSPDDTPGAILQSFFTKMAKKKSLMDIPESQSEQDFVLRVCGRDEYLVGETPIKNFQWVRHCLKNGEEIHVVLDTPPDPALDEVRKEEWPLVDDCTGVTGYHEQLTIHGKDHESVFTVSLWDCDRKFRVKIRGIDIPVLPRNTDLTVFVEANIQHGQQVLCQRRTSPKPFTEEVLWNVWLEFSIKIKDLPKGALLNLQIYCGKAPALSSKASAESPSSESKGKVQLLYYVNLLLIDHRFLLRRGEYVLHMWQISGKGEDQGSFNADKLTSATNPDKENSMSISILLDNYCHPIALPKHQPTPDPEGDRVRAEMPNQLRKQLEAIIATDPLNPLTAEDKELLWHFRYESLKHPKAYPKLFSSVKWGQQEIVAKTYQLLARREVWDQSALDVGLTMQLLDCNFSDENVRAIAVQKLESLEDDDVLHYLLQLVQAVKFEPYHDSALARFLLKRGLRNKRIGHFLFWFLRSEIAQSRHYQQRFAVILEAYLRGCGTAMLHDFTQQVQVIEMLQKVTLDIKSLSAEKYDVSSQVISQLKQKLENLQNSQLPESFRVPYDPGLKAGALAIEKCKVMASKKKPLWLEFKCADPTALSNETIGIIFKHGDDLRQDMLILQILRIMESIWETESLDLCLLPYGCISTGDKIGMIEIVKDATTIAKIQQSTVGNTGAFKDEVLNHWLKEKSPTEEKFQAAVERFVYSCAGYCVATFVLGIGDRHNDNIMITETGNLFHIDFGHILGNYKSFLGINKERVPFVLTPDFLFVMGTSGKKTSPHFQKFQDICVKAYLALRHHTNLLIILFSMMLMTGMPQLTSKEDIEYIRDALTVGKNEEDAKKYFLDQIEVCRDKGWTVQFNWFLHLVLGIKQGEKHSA
PI3K-alpha, sequence (P42336 whole entry, species assumed): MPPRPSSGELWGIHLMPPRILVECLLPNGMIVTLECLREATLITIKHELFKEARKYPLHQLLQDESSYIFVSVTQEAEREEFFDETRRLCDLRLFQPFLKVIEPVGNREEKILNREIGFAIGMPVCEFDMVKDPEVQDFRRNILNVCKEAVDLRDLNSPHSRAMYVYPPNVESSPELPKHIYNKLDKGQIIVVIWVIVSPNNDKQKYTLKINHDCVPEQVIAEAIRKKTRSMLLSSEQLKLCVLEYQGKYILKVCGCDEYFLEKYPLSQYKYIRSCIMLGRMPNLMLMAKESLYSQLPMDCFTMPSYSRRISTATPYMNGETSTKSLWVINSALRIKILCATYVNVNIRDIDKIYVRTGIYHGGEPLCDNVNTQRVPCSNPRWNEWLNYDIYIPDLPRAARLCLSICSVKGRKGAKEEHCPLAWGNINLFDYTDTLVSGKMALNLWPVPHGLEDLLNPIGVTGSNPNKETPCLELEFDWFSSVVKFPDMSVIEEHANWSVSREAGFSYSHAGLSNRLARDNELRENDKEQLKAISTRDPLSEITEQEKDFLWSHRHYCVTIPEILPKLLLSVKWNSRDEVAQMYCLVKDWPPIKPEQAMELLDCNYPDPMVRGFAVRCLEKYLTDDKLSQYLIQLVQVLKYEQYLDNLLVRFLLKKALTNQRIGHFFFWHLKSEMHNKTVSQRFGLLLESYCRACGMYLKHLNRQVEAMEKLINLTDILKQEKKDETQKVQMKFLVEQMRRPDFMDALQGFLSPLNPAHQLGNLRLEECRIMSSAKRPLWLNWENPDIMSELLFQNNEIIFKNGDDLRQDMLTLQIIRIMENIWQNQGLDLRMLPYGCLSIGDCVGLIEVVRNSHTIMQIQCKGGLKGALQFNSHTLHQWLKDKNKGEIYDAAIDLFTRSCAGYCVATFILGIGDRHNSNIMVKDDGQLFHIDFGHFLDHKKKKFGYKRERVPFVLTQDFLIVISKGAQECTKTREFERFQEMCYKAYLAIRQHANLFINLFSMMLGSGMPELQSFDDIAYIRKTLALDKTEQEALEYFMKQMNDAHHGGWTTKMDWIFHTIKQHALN
PI3K-alpha, sequence (P27986 whole entry partner, species assumed): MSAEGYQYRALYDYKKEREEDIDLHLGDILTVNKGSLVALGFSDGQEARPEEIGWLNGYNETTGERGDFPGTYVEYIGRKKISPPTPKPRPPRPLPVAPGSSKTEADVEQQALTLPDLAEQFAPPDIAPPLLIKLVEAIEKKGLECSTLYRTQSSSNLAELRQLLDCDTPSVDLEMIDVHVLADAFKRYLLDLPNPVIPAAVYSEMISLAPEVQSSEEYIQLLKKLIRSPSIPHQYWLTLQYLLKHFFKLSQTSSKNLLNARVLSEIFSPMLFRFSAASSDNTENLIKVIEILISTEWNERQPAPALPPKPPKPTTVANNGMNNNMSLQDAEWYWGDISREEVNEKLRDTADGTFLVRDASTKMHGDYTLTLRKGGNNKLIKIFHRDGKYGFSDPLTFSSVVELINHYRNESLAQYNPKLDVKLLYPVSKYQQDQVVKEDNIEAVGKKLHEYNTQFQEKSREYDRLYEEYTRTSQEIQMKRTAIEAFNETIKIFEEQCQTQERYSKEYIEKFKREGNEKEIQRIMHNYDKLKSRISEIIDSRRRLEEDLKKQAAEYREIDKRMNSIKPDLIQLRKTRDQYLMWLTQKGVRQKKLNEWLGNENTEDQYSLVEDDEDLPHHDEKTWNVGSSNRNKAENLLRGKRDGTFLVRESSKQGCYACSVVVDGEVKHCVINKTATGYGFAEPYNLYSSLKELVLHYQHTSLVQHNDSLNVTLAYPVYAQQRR

With `Cn1ccc2c3nc(-c4ccc(NC(=O)NCCCn5ccnc5)cc4)nc(N4CCOCC4)c3ccc21` [Example 8, 1-[3-(1H-imidazol-1-yl)propyl]-3-[4-(7-methyl-4-morpholin-4-yl-7H-pyrrolo[2,3-h]quinazolin-2-yl)phenyl]urea], the values for the IC50 at Human mTOR, on PI3K-alpha and at PI3K-gamma were 190 nM, 431 nM and 3040 nM, respectively.
In the case of `O=Cc1c[nH]c2ccc3c(N4CCOCC4)nc(-c4cccc(O)c4)nc3c12` [Example 82, 2-(3-hydroxyphenyl)-4-morpholin-4-yl-7H-pyrrolo[2,3-h]quinazoline-9-carbaldehyde], the IC50 is 16 nM on Human mTOR, 111 nM at PI3K-alpha and 147 nM at PI3K-gamma.
The matching figures for “2-(1H-indol-4-yl)-7-methyl-4-morpholin-5-yl-7H-pyrrolo[2,3-h]quinazoline [Example 49]”: 340 nM, 6310 nM and 4660 nM.
With `Cn1ccc2c3nc(-c4ccc(NC(=O)NCc5ccccn5)cc4)nc(N4CCOCC4)c3ccc21` [Example 15, 1-[4-(7-methyl-4-morpholin-4-yl-7H-pyrrolo[2,3-h]quinazolin-2-yl)phenyl]-3-(pyridin-2-ylmethyl)urea], the figures for the IC50 on Human mTOR, on PI3K-alpha and at PI3K-gamma were 2150 nM, 2520 nM and 3310 nM, respectively.
As for `O=C(Nc1ccncc1)Nc1ccc(-c2nc(N3CCOCC3)c3ccc4c(ccn4S(=O)(=O)C4CCN(C(=O)OCc5ccccc5)CC4)c3n2)cc1` [Example 61, benzyl 4-[(4-morpholin-4-yl-2-{4-[(pyridin-4-ylcarbamoyl)amino]phenyl}-7H-pyrrolo[2,3-h]quinazolin-7-yl)sulfonyl]piperidine-1-carboxylate], the IC50 on Human mTOR was 130 nM; at PI3K-alpha, 384 nM; at PI3K-gamma it was 3490 nM.
With `COC(=O)c1ccc(-c2nc(N3CCOCC3)c3ccc4c(ccn4C)c3n2)cc1` [Example 36, Methyl 4-(7-methyl-4-morpholin-4-yl-7H-pyrrolo[2,3-h]quinazolin-2-yl)benzoate], the IC50 at Human mTOR is 1600 nM; at PI3K-alpha, 1760 nM; at PI3K-gamma it was 4000 nM.
On the same counts, the results for `Cn1ccc2c3nc(-c4ccc(NS(=O)(=O)c5ccccc5)cc4)nc(N4CCOCC4)c3ccc21` [Example 22, N-[4-(7-methyl-4-morpholin-4-yl-7H-pyrrolo[2,3-h]quinazolin-2-yl)phenyl]benzenesulfonamide] are 5300 nM, 8400 nM and 6160 nM.
Take `Cn1ccc2c3nc(-c4ccc(NC(=O)Nc5ccc(C(F)(F)F)cc5)cc4)nc(N4CCOCC4)c3ccc21` [Example 14, 1-[4-(7-methyl-4-morpholin-4-yl-7H-pyrrolo[2,3-h]quinazolin-2-yl)phenyl]-3-[4-(trifluoromethyl)phenyl]urea]: the IC50 on Human mTOR was determined as 125 nM; at PI3K-alpha, 239 nM; on PI3K-gamma, 634 nM.
On to `OCc1cccc(-c2nc(N3CCOCC3)c3ccc4[nH]ccc4c3n2)c1` [Example 57], for which the IC50 at Human mTOR came out at 235 nM; on PI3K-alpha, 514 nM; at PI3K-gamma it was 3580 nM.
`C=CC(O)c1cccc(-c2nc(N3CCOCC3)c3ccc4c(ccn4C)c3n2)c1` (stereo not drawn) [Example 26, 1-[3-(7-methyl-4-morpholin-4-yl-7H-pyrrolo[2,3-h]quinazolin-2-yl)phenyl]prop-2-en-1-ol]: the half-inhibitory concentration (IC50) is 2100 nM at Human mTOR, 5420 nM on PI3K-alpha and greater than 10000 nM on PI3K-gamma.
Turning to `Cn1ccc2c3nc(-c4ccc(NC(=O)NCc5ccco5)cc4)nc(N4CCOCC4)c3ccc21` [Example 7, 1-(2-furylmethyl)-3-[4-(7-methyl-4-morpholin-4-yl-7H-pyrrolo[2,3-h]quinazolin-2-yl)phenyl]urea], the IC50 stood at 560 nM on Human mTOR, 1690 nM at PI3K-alpha and 3500 nM on PI3K-gamma.
The matching figures for `Nc1ncc(-c2nc(N3CCOCC3)c3ccc4[nH]ccc4c3n2)cn1` [Example 58, -(4-morpholin-4-yl-7H-pyrrolo[2,3-h]quinazolin-2-yl)pyrimidin-2-amine]: 155 nM, 102 nM and 471 nM.
With `COCOc1cncc(-c2nc(N3CCOCC3)c3ccc4c(ccn4S(C)(=O)=O)c3n2)c1` [Example 75, 2-[5-(methoxymethoxy)pyridin-3-yl]-7-(methylsulfonyl)-4-morpholin-4-yl-7H-pyrrolo[2,3-h]quinazoline], the IC50 was 16500 nM at Human mTOR, greater than 10000 nM on PI3K-alpha and greater than 10000 nM on PI3K-gamma.
Regarding `Cn1ccc2c3nc(-c4ccc(NC(=O)c5ccncc5)cc4)nc(N4CCOCC4)c3ccc21` [Example 18, N-[4-(7-methyl-4-morpholin-4-yl-7H-pyrrolo[2,3-h]quinazolin-2-yl)phenyl]isonicotinamide], the values for the IC50 on Human mTOR, at PI3K-alpha and at PI3K-gamma were 1450 nM, 4460 nM and 5620 nM, respectively.
In the case of `Cn1ccc2c3nc(-c4ccc(NC(=O)Nc5ccccn5)cc4)nc(N4CCOCC4)c3ccc21` [Example 9, 1-[4-(7-methyl-4-morpholin-4-yl-7H-pyrrolo[2,3-h]quinazolin-2-yl)phenyl]-3-pyridin-2-ylurea], the figures for the IC50 on Human mTOR, at PI3K-alpha and at PI3K-gamma were 75 nM, 2700 nM and 5130 nM, respectively.
With `CC(C)c1ccc(NC(=O)Nc2ccc(-c3nc(N4CCOCC4)c4ccc5c(ccn5C)c4n3)cc2)cc1` [Example 12, 1-(4-isopropylphenyl)-3-[4-(7-methyl-4-morpholin-4-yl-7H-pyrrolo[2,3-h]quinazolin-2-yl)phenyl]urea], the IC50 at Human mTOR came to 355 nM; at PI3K-alpha, 2000 nM; on PI3K-gamma, 1330 nM.
For `Cn1ccc2c3nc(-c4cccc5[nH]ccc45)nc(N4CCOCC4)c3ccc21` [Example 45, 2-(1H-indol-4-yl)-7-methyl-4-morpholin-4-yl-7H-pyrrolo[2,3-h]quinazoline], the IC50 at Human mTOR came to 1130 nM; on PI3K-alpha, 2460 nM; on PI3K-gamma it was 2830 nM.
As to `Cn1ccc2c3nc(-c4cccc(S(=O)(=O)NC5CC5)c4)nc(N4CCOCC4)c3ccc21` [Example 56, N-cyclopropyl-3-(7-methyl-4-morpholin-4-yl-7H-pyrrolo[2,3-h]quinazolin-2-yl)benzenesulfonamide], the figures for the IC50 on Human mTOR, at PI3K-alpha and at PI3K-gamma were 50 nM, 6970 nM and 6700 nM, respectively.
With `CS(=O)(=O)n1ccc2c3nc(-c4cccc(CO)c4)nc(N4CCOCC4)c3ccc21` [Example 74, {3-[7-(methylsulfonyl)-4-morpholin-4-yl-7H-pyrrolo[2,3-h]quinazolin-2-yl]phenyl}methanol], the IC50 at Human mTOR was 545 nM; on PI3K-alpha it was 212 nM; at PI3K-gamma, 1190 nM.
For the molecule `Cn1ccc2c3nc(-c4cccc(C(O)c5ccccc5)c4)nc(N4CCOCC4)c3ccc21` (stereo not drawn) [Example 29, [3-(7-methyl-4-morpholin-4-yl-7H-pyrrolo[2,3-h]quinazolin-2-yl)phenyl](phenyl)methanol], the IC50 was 3800 nM at Human mTOR, 2970 nM on PI3K-alpha and 4070 nM at PI3K-gamma.
Turning to `CCNC(=O)Nc1ccc(-c2nc(N3CCOCC3)c3ccc4c(ccn4C)c3n2)cc1` [Example 3, 1-ethyl-3-[4-(7-methyl-4-morpholin-4-yl-7H-pyrrolo[2,3-h]quinazolin-2-yl)phenyl]urea], the IC50 at Human mTOR stood at 35 nM; at PI3K-alpha it was 2110 nM; at PI3K-gamma, 4040 nM.
Regarding `CC(=O)Nc1ccc(-c2nc(N3CCOCC3)c3ccc4c(ccn4C)c3n2)cc1` [Example 16, N-[4-(7-methyl-4-morpholin-4-yl-7H-pyrrolo[2,3-h]quinazolin-2-yl)phenyl]acetamide], the IC50 was 370 nM on Human mTOR, 3080 nM at PI3K-alpha and greater than 10000 nM at PI3K-gamma.
Turning to `CC(C)N1CCC(S(=O)(=O)n2ccc3c4nc(-c5ccc(NC(=O)Nc6ccncc6)cc5)nc(N5CCOCC5)c4ccc32)CC1` [Example 65, 1-(4-{7-[(1-isopropylpiperidin-4-yl)sulfonyl]-4-morpholin-4-yl-7H-pyrrolo[2,3-h]quinazolin-2-yl}phenyl)-3-pyridin-4-ylurea], the IC50 at Human mTOR amounted to 73 nM; on PI3K-alpha it was 48 nM; on PI3K-gamma, 300 nM.

For the origin of these results see patent publication US20090227575A1, “7H-PYRROLO[2,3-H]QUINAZOLINE COMPOUNDS, THEIR USE AS mTOR KINASE AND PI3 KINASE INHIBITORS, AND THEIR [sequence]” (Wyeth, priority 2008, published 2009).
